These results are taken from US12186283B2, “Bismuth-thiol compositions and methods of use” (Microbion Corporation, priority 2018, dated 2025).

In brackets after ≈: the same amount, converted by molar mass. Several values for one entry are separate records, joined by “and”; a condition that tells them apart may be missing. Equal entries are not always repeated. Where two headings read alike, the source gives them in different places. Where only a bound is given, the exact number is not on record here.

The test system of one data set is S. aureus ATCC 29213. The settings on record: control strain ATCC 29213 S. aureus; per CLSI M100-S24 or provided by Microbion; cited from earlier work.
Data set [1] has as its system Enterococcus spp. (E. faecalis, E. faecium). Put plainly: Broth microdilution MIC (Example 11). It counts as cell-based. The following applies: Enterococcus faecium, VRE, E. faecium MMX 485; VRE, vanA, LevR, CipR, EryR; read-out: MIC.
The subject of data set [2] is beta-hemolytic streptococci (S. pyogenes, S. agalactiae). Put plainly: Broth microdilution MIC (Example 11). Type of data set: cell-based, Streptococcus pyogenes, Streptococcus agalactiae. The following applies: read-out: MIC.
Data set [3] deals with P. aeruginosa. Description: Broth microdilution MIC (Example 10). (In general: In broth dilution the organism is exposed to a series of concentrations in liquid medium.)
The test system of data set [4] is Burkholderia cepacia complex. Put plainly: Broth microdilution MIC (Example 10). The following applies: initial MIC testing.
For data set [5], the system named is Burkholderia cepacia complex. Put plainly: Checkerboard FIC assay, BisEDT with CF agents (Example 10). Type of data set: cell-based, Burkholderia spp. The settings on record: for MIC: agent alone, as observed during FIC testing.
Data set [6] relates to P. aeruginosa. The description is as above. Type of data set: cell-based, Pseudomonas aeruginosa. The following applies: for MIC: agent alone, as observed during FIC testing; for Drug B MIC: Colistin alone (checkerboard with BisEDT).
Data set [7] relates to P. aeruginosa. The following applies: P. aeruginosa isolate 103, CLSI QC range in parenthesis, cited from earlier work.
The nature of data set [8]: Aerosol particle size distribution of nebulized suspensions (cascade impactor / APS). The settings on record: exposure aerosols of the rat efficacy study, In-Tox Mercer Impactor.
Data set [9] has as its system Pseudomonas aeruginosa strain PA01. Put plainly: Bacterial killing curves with and without 10% CF patient sputum.
Setting [10] is: S. agalactiae MMX 3741, ERY^R CC^R.
Setting [11] is: S. agalactiae MMX 3743, ERY^R CC^R.
Where [12] appears, read: S. agalactiae MMX 4077, ERY^R CC^R.
[13] abbreviates: S. agalactiae MMX 4079, ERY^R CC^R Pen^R MEM^R.
[14] abbreviates: S. agalactiae MMX 4086, ERY^R CC^R.

As to `CC[C@H]1OC(=O)[C@H](C)[C@@H](O[C@H]2C[C@@](C)(OC)[C@@H](O)[C@H](C)O2)[C@H](C)[C@@H](O[C@@H]2O[C@H](C)C[C@H](N(C)C)[C@H]2O)[C@](C)(OC)C[C@@H](C)C(=O)[C@H](C)[C@@H](O)[C@]1(C)O` [Clarithromycin], in the data set with S. aureus ATCC 29213, the “Expected MIC: acceptable range” value was 0.12 to 0.5 µg/mL and the “Expected MIC: goal” value was 0.25 µg/mL.

A word on the MIC: it is the least concentration at which growth counts as inhibited. For `C[C@H]1COc2c(N3CCN(C)CC3)c(F)cc3c(=O)c(C(=O)O)cn1c23` [Levofloxacin, reference compound], the MIC in data set [1] was more than 64 µg/mL; in [2] (setting [10]) it was 0.5 µg/mL (≈ 1.38 µM); in data set [2] (setting [11]), 1 µg/mL (≈ 2.77 µM); in [2] (setting [12]) it was 0.5 µg/mL (≈ 1.38 µM); in data set [2] (setting [13]), 1 µg/mL (≈ 2.77 µM); in data set [2] (setting [14]), 0.5 µg/mL (≈ 1.38 µM).

On to `NC[C@H]1O[C@H](O[C@H]2[C@H](O)[C@@H](O[C@H]3O[C@H](CO)[C@@H](O)[C@H](N)[C@H]3O)[C@H](N)C[C@@H]2N)[C@H](N)C[C@@H]1O` [TOB], for which the MIC in the data set with P. aeruginosa [3] (P. aeruginosa isolate 103 (ATCC 25922), QC strain, initial MIC testing) was 1 µg/mL (≈ 2.14 µM); with P. aeruginosa [3] (P. aeruginosa isolate 103 (ATCC 25922), during FIC testing, each agent tested alone for QC, one replicate) it was 1 µg/mL; against P. aeruginosa [3] (P. aeruginosa isolate 1497 (TOB-R, AMK-R, CIP-I, AZT-R, COL-R), initial MIC testing), 16 µg/mL (≈ 34.2 µM); against P. aeruginosa [3] (P. aeruginosa isolate 1530 (TOB-R, AMK-R, CIP-R), initial MIC testing) it was 32 µg/mL (≈ 68.4 µM); against P. aeruginosa [3] (P. aeruginosa isolate 1553 (TOB-R, AMK-R, CIP-R), initial MIC testing), more than 256 µg/mL; in the data set with P. aeruginosa [3] (P. aeruginosa isolate 6322 (MEM-R, TOB-R, AMK-R, CIP-R, AZT-R), initial MIC testing) it was 128 µg/mL (≈ 274 µM). The MIC in the data set with P. aeruginosa [3] (P. aeruginosa isolate 6977 (MEM-I, TOB-R, CIP-R, AZT-I), initial MIC testing) turned out to be 128 µg/mL (≈ 274 µM); with P. aeruginosa [3] (P. aeruginosa isolate 7745 (MEM-R, CIP-R, AZT-R), initial MIC testing) it was 0.5 µg/mL (≈ 1.07 µM); in the data set on P. aeruginosa [3] (P. aeruginosa isolate 7754 (MEM-R, TOB-R, CIP-R, AZT-I), initial MIC testing), 32 µg/mL (≈ 68.4 µM); against P. aeruginosa [3] (P. aeruginosa isolate 7762 (MEM-I, CIP-I), initial MIC testing) it was 1 µg/mL (≈ 2.14 µM); in the data set on P. aeruginosa [3] (P. aeruginosa isolate 7871 (MEM-R, AZT-I), initial MIC testing), 0.5 µg/mL (≈ 1.07 µM); in the data set with P. aeruginosa [3] (P. aeruginosa isolate 7874, initial MIC testing), 0.5 µg/mL (≈ 1.07 µM). Also, the MIC was 1 µg/mL (≈ 2.14 µM) in the data set with P. aeruginosa [3] (P. aeruginosa isolate 7886 (MEM-R, CIP-R, AZT-R), initial MIC testing); more than 256 µg/mL in the data set with P. aeruginosa [3] (P. aeruginosa isolate 8797 (MEM-R, TOB-R, AMK-R, CIP-R, AZT-R, COL-R), initial MIC testing); 32 µg/mL (≈ 68.4 µM) in the data set with P. aeruginosa [3] (P. aeruginosa isolate 8798 (MEM-R, TOB-R, AMK-R, CIP-R, AZT-R, COL-R), initial MIC testing); 0.5 µg/mL (≈ 1.07 µM) against P. aeruginosa [3] (P. aeruginosa isolate 9108 (CIP-R, AZT-I), initial MIC testing); 64 µg/mL (≈ 137 µM) in data set [4] (B. cenocepacia isolate 0548 (CIP-R)); 256 µg/mL (≈ 548 µM) in data set [4] (B. cenocepacia isolate 0813 (CPI-I)). For the same compound, the MIC in [4] (B. cepacia isolate 0546) came to 64 µg/mL (≈ 137 µM); in data set [4] (B. cepacia isolate 1793) it was 64 µg/mL (≈ 137 µM); in [4] (B. cepacia isolate 9040) it was 8 µg/mL (≈ 17.1 µM); in data set [4] (B. multivorans isolate 1791) it was 64 µg/mL (≈ 137 µM); in data set [4] (B. multivorans isolate 5665 (CIP-I)), 64 µg/mL (≈ 137 µM); in [4] (B. multivorans isolate 8952 (CIP-I)), 16 µg/mL (≈ 34.2 µM). The MIC was determined as 32 µg/mL in data set [5] (B. cenocepacia isolate 0548); 256 µg/mL in data set [5] (B. cenocepacia isolate 0813); 16 µg/mL in data set [5] (B. cepacia isolate 1793); 128 µg/mL with P. aeruginosa [6] (P. aeruginosa isolate 6322); 128 µg/mL in the data set with P. aeruginosa [6] (P. aeruginosa isolate 6977); 0.5 µg/mL with P. aeruginosa [6] (P. aeruginosa isolate 7745). Further, the results for the MIC in the data set with P. aeruginosa [6] (P. aeruginosa isolate 8798) and with P. aeruginosa [6] (P. aeruginosa isolate 9108) were 16 µg/mL and 0.5 µg/mL, respectively. The “MIC, CLSI QC range” value with P. aeruginosa [7] (Table 24) and in the data set on P. aeruginosa [7] (Table 26) was “(0.25-1) μg/mL” each time.

In turn, `NC[C@H]1O[C@H](O[C@H]2[C@H](O)[C@@H](O[C@H]3O[C@H](CO)[C@@H](O)[C@H](N)[C@H]3O)[C@H](N)C[C@@H]2N)[C@H](N)C[C@@H]1O` [Tobramycin, reference compound] registered an MMAD in data set [8] of 2.81 μm. In addition, the “CFU higher in cultures with sputum than without” value in data set [9] (PA01, 1 μg/mL, 10% CF sputum, most time points) is 0.5-1 log CFU/mL. For the same compound, the “effect of CF patient sputum on bactericidal activity” value in [9] (PA01, 10% CF patient sputum) was “partially inhibits”. Further, the FICB in [5] (B. cenocepacia 548, FIC of Tobramycin in combination with BisEDT) is 0.25; in [5] (B. cenocepacia 813, FIC of Tobramycin in combination with BisEDT), 1; in data set [5] (B. cepacia 546, Tobramycin FIC in combination with BisEDT, per checkerboard row), 0.5; in data set [5] (B. cepacia 1793, Tobramycin FIC in combination with BisEDT, per checkerboard row), 0.5 and 1; in data set [5] (B. multivorans 1795, FIC of Tobramycin in combination with BisEDT), 1; in the data set on P. aeruginosa [6] (P. aeruginosa 6322, FIC of Tobramycin in combination with BisEDT, panel rows C-G) it was 1. Besides, the FICB in the data set on P. aeruginosa [6] (P. aeruginosa 6977, Tobramycin FIC in combination with BisEDT, per checkerboard row) was determined as 2; in the data set on P. aeruginosa [6] (P. aeruginosa 7745, Tobramycin FIC in combination with BisEDT, per checkerboard row), 1; in the data set with P. aeruginosa [6] (P. aeruginosa 9108, Tobramycin FIC in combination with BisEDT, per checkerboard row), 1. Further, the MICB in data set [5] (B. cepacia 546, Tobramycin MIC in combination with BisEDT, per checkerboard row) is 16 µg/mL; in [5] (B. cepacia 1793, Tobramycin MIC in combination with BisEDT, per checkerboard row), 8 µg/mL and 16 µg/mL; in [5] (B. multivorans 1795, MIC of Tobramycin in combination with BisEDT) it was more than 256 µg/mL; in the data set on P. aeruginosa [6] (P. aeruginosa 6322, MIC of Tobramycin in combination with BisEDT, panel rows C-G) it was 128 µg/mL; in the data set with P. aeruginosa [6] (P. aeruginosa 6977, Tobramycin MIC in combination with BisEDT, per checkerboard row), 256 µg/mL; with P. aeruginosa [6] (P. aeruginosa 7745, Tobramycin MIC in combination with BisEDT, per checkerboard row), 0.5 µg/mL. Moreover, the MICB in the data set on P. aeruginosa [6] (P. aeruginosa 9108, Tobramycin MIC in combination with BisEDT, per checkerboard row) worked out at 0.5 µg/mL.

Turning to `CCC[C@@H]1C[C@@H](C(=O)N[C@@H]([C@H]2O[C@H](SC)[C@H](O)[C@@H](O)[C@H]2O)[C@H](C)Cl)N(C)C1` [clindamycin, reference compound], the MIC in data set [1] was more than 32 µg/mL; in [2] (setting [10]), more than 8 µg/mL; in data set [2] (setting [11]), more than 8 µg/mL; in [2] (setting [12]) it was more than 8 µg/mL; in [2] (setting [13]), more than 8 µg/mL; in data set [2] (setting [14]), more than 8 µg/mL.

Take Colistin: the FICB amounted to 1 in data set [5] (B. multivorans 1795, FIC of Colistin in combination with BisEDT); 1 with P. aeruginosa [6] (P. aeruginosa 6322, Colistin FIC in combination with BisEDT, per checkerboard row); 1 in the data set with P. aeruginosa [6] (P. aeruginosa 6977, Colistin FIC in combination with BisEDT, per checkerboard row); 1 in the data set on P. aeruginosa [6] (P. aeruginosa 7745, Colistin FIC in combination with BisEDT, per checkerboard row). The MICB in the data set on P. aeruginosa [6] (P. aeruginosa 6322, Colistin MIC in combination with BisEDT, per checkerboard row) is 0.5 µg/mL; in the data set with P. aeruginosa [6] (P. aeruginosa 6977, Colistin MIC in combination with BisEDT, per checkerboard row) it was 1 µg/mL; in the data set on P. aeruginosa [6] (P. aeruginosa 7745, Colistin MIC in combination with BisEDT, per checkerboard row) it was 0.5 µg/mL. The “Drug B MIC” value was 0.5 µg/mL with P. aeruginosa [6] (P. aeruginosa 6322); 1 µg/mL in the data set on P. aeruginosa [6] (P. aeruginosa 6977); 0.5 µg/mL in the data set on P. aeruginosa [6] (P. aeruginosa 7745); more than 256 µg/mL in the data set with P. aeruginosa [6] (P. aeruginosa 8798); 0.5 µg/mL in the data set with P. aeruginosa [6] (P. aeruginosa 9108).
